Laboratory results reported in US20220267774A1, “METHODS AND COMPOSITIONS TO DIRECT BREAKDOWN OF INSULIN MRNA IN BENIGN FASHION” (CITY OF HOPE, priority 2019, published 2022).

Assays:
[1] = system: 293T cells transfected with INS-DRiP-GFP; assay: Effect of ER stress inducers on DRiP expression in INS-DRiP-GFP transfected cells; type: cell-based, human; details: western blot and flow cytometry
Description: FIG. 8A is a western blot of 293T cell lysates (left to right) in nontransfected cells (NT), or cells transfected with INS-DRiP-GFP that were untreated (−), stimulated with thapsigargin (TG), or stimulated with tunicamycin (TM). The western blot in FIG. 8A is labeled using anti-GFP, anti-insulin, and anti-actin antibodies. FIG. 8B is a chart depicting densitometry analyses of the western blot in FIG. 8A analyzing the GFP (black bars) and insulin bands (gray bars) and shown as induction ratio±s.d. where the intensity of the nontreated cells was used as reference (right).
The effect of endoplasmic reticulum stress (ER stress) on translation initiation was also determined. Cells transfected with INS-DRiP-GFP were stimulated with the ER stress-inducers thapsigargin (TG) or tunicamycin (TM).

[2] = target: HLA-DQ8trans (Homo sapiens, UniProt P01909+P01920, A45G/D89A/E77G/H199R/N214S/Y58L); details: cell-free; cited from earlier work
[3] = target: HLA-DQ8cis (Homo sapiens, UniProt P01909+P01920, A209T/A45G/C70Q/D89A/E183D/E77G/F237L/G63E/H199R/I129T/K197E/L178F/L74F/L98V/Q57E/Q76R/S185I/S97I/T217I/T49S/V73L/Y58L); details: cell-free; cited from earlier work
[4] = system: HLA-A2; details: cited from earlier work
[5] = target: HLA-DQ2trans (Homo sapiens, UniProt P01909+P01920, A45G/A70V/C70Q/D89A/E106A/E183D/E77G/E98D/G63E/H199R/I129T/K197E/L107V/L178F/L74F/L98V/N214S/P84L/P87L/Q57E/Q76R/S185I/S97I/T103K/T109R/T172A/T49S/T60S/V73L/V78E/V99I/Y58L/Y62S/Y69I/Y79F); details: cell-free; cited from earlier work
[6] = system: human beta cell line (1.1B4); assay: Insulin mRNA and DRiP protein expression in beta cell line under stress; type: cell-based; details: 1.1B4 cells stressed with TG
Description: FIGS. 22A-B illustrates ex vivo cleavage of insulin mRNA in a cell line. FIG. 22A is a bar graph illustrating insulin mRNA expression change when beta cells are stressed with Thapsigargin (TG). FIG. 22B is a bar graph illustrating DRiP protein expression when beta cells are stressed with TG.
Ex vivo insulin mRNA expression and DRiP protein expression in beta cell line under stress. Ex vivo cleavage of insulin mRNA was examined in a 1.1B4 cell line. A human beta cell line (1.1B4) was stressed with Thapsigargin (chemical), with or without inhibition of IRE1, followed by analysis of the insulin mRNA expression and DRiP protein expression. […] But it is not enough to prevent an increase in DRiP expression. The protective SNP may have this effect ex vivo.

[7] = system: cells transfected with INS-DRiP-GFP vectors; assay: DRiP-GFP expression from INS-DRiP-GFP vectors; type: cell-based; details: both variants
Description: Method: Two vectors of INS-DRiP-GFP (one of the protective genotype and one of the susceptible genotype) that express insulin and DRiP linked to GFP were created (FIG. 28). The vectors were transfected into cells, and GFP expression was observed when translation is started at the DRiP start codon.

[8] = target: T1, HLA-DQ8trans (human, UniProt P01909 24-216; P01920 33-230, limits assumed); assay: cell-free HLA-DQ binding studies
T1 construct: Formed by the alpha-chain of HLA-DQ2 (DQA1*05:01) and the beta-chain of HLA-DQ8 (DQB1*03:02) (so in the source)
T1 MHC II alpha: not shown
T1 MHC II beta: not shown

[9] = target: HLA-DQ2cis (human, UniProt P01909 24-216, limits assumed); assay: cell-free HLA-DQ binding studies
[10] = target: T2, HLA-DQ2trans (human, UniProt P01909 24-216, limits assumed); assay: cell-free HLA-DQ binding studies
T2 construct: Formed by the alpha-chain of HLA-DQ8 (DQA1*03:01) and the beta-chain of HLA-DQ2 (DQB1*02:01) (so in the source)
T2 MHC II alpha: not shown
T2 MHC II beta: not shown

[11] = target: T3, HLA-DQ8cis (human, UniProt P01909 24-216; P01920 33-230, limits assumed); assay: cell-free HLA-DQ binding studies
T3 MHC II alpha: not shown
T3 MHC II beta: not shown

For tunicamycin [TM], the “expression of DRiP polypeptide” value [1] was “increased by TG but not TM”.

In the case of MLYQHLLPL [INS-DRiP1-9], the “binding affinity to HLA-DQ8trans” value [2] is given as “strong binding affinity”, the “binding affinity to HLA-DQ8cis” value [3] is given as “strong binding affinity” and the “binding to HLA-A2” value [4] is given as “high affinity”. The “binding affinity to HLA-DQ2trans” value [5] was “not”.

With `C/C=C(/C)C(=O)O[C@H]1C(C)=C2[C@H]([C@@H]1OC(=O)CCCCCCC)[C@@](C)(OC(C)=O)C[C@H](OC(=O)CCC)[C@@]1(O)[C@H]2OC(=O)[C@@]1(C)O` [TG, thapsigargin] the “expression of DRiP polypeptide” value [1] was “increased”, the DRiP protein expression [6] was “goes up” and the “insulin RNA expression” value ([6]; with or without IRE1 inhibition) was “goes down”. For the same molecule, the “effect on DRiP-GFP expression” value [7] was “increased in both variants”.

B1: INS-DRiP1-9 epitope MLYQHLLPL (peptide)
peptide: MLYQHLLPL
notes: Synthetic counterpart of the N-terminal 9-mer of INS-DRiP; also called 9-mer peptide; INS-DRiP peptide fragment
B1: binds [8]; no binding [9]; no binding [10]. B1: binds [11].
